Data taken from patent US20120264793A1, “Pharmaceutical Use of 2',2-Bis-Thiazole Non-Nucleoside Compounds as Hepatitis C Virus Inhibitor” (Shanghai Institute of Materia Medica, Chinese Academy of …, priority 2009, published 2012).
pIC50: −log10 of the molar value.

System: HCV (J399E) inserted with enhanced green fluorescent protein (EGFP)
Test: microbe, parasite or virus in culture
Type: cell-based, Hepatitis C Virus
Settings: HCV (J399E)-EGFP infected Huh7.5.1 cells, MOI=0.1, 72 h incubation; read-out: IC50 (concentration at which 50% of the replication of HCV was inhibited)
Protocol: The in vitro anti-HCV activity assay of the 2′,2-bis-thiazole non-nucleoside compounds at cellular level was performed by using an anti-HCV activity assay protocol recognized by one skilled in the art.
The variation of the green fluorescence intensity was recorded on a microplate reader and cytotoxicity was measured at the same time, so as to evaluate the influence of the compound on the replication activity of HCV.
(§1) Compounds to be tested were dissolved in DMSO to prepare a stock solution before the test. Upon using, the stock solution was diluted to a desired concentration with DMEM (Dulbecco's Modified Eagle Media, purchased from GibcoBRL company (Life Technologies, Grand Island, N.Y., USA)) containing 10% FBS (fetal bovine serum, purchased from Hyclone company (Logan, Utah, USA)).
Positive control: ribavirin (purchased from Sigma/Aldrich). It was dissolved in DMSO to prepare a stock solution and stored at −20° C. before use, and diluted to a desired concentration upon using.
(§2) Huh7.5.1 cells (10% FBS, DMEM) at 10^5 cells/ml were inoculated on a 96-well plate (Costar 3904) with 100 μl per well. 24 h later, the supernatant of the culture media was sucked out, and 50 μl of virus supernatant with MOI=0.1 was added. 8 h later, 50 μl of the testing compound solution was added and 100 μl of culture media was supplemented. After incubation for 72 h, the supernatant was sucked out, and read on a fluorescent microplate reader (Ex=488 nm, Em=516 nm). Then each well was added with 20 μl of MTT (5 mg/ml) and additional 50 μl of culture media. 4 h later, 100 μl of MTT lysis solution was added. 6 h later, reading was performed at a wavelength of 570 nm.

Compound	pIC50
CC(C)Cc1sc(-c2nccs2)nc1C(N)=O [Compound C267]	5.31
CCC(=O)c1nc(-c2nccs2)sc1CC(C)C [Compound C280-4]	5.05
CNC(=O)c1nc(-c2nccs2)sc1CC(C)C [Compound C281]	4.87
O=C(O)c1nc(-c2nccs2)sc1Cc1ccccc1 [Compound C302]	4.59
CCOC(=O)/C=C/c1nc(-c2nccs2)sc1CC(C)C [Compound C322-2]	5.01
CCOC(=O)CCc1nc(-c2nccs2)sc1CC(C)C [Compound C324-5]	4.44
CC(C)Cc1sc(-c2nccs2)nc1C(=O)Nc1ccccc1 [Compound C343]	4.72

Same assay, conditions: Hepatitis C virus, Huh-7.5.1, 72 h, read-out: IC50 (concentration at which 50% of the replication of HCV was inhibited)

Compound	pIC50
CCC(O)c1nc(-c2nccs2)sc1CC(C)C (centres unmarked) [Compound C282-2]	5.55
CC(C)Cc1sc(-c2nccs2)nc1C(=O)NCc1ccccc1 [Compound C357]	5.55
CC(C)Cc1sc(-c2nccs2)nc1CNC(=O)c1nc(-c2nccs2)sc1CC(C)C [Compound C503]	5.85
CC(C)Cc1sc(-c2nccs2)nc1C(=O)NCc1ccc(F)cc1 [Compound W28F]	5.12
Cc1cnc(-c2nc(C(=O)NCc3ccc(F)cc3)c(CC(C)C)s2)s1 [Compound W28MF]	6.10
NC(=O)c1ncn([C@@H]2O[C@H](CO)[C@@H](O)[C@H]2O)n1 [ribavirin, reference compound]	4.32

Same assay, conditions: from CC50 and IC50 in Huh7.5.1 cells; SI greater than 2 means effective

Compound	SI (bioactivity selective index)
CCC(O)c1nc(-c2nccs2)sc1CC(C)C (centres unmarked) [Compound C282-2]	>35.7
CC(C)Cc1sc(-c2nccs2)nc1C(=O)NCc1ccccc1 [Compound C357]	>11.9
CC(C)Cc1sc(-c2nccs2)nc1CNC(=O)c1nc(-c2nccs2)sc1CC(C)C [Compound C503]	>71
CC(C)Cc1sc(-c2nccs2)nc1C(=O)NCc1ccc(F)cc1 [Compound W28F]	4.9
Cc1cnc(-c2nc(C(=O)NCc3ccc(F)cc3)c(CC(C)C)s2)s1 [Compound W28MF]	>125
NC(=O)c1ncn([C@@H]2O[C@H](CO)[C@@H](O)[C@H]2O)n1 [ribavirin, reference compound]	9.3

System: not listed separately
Test: in vitro
Type: cell-based
Settings: human
Protocol: (§3) The anti-HCV activity assay was performed by using Huh7.5.1 cells (presented by WUHAN INSTITUTE of VIROLOGY, CHINESE ACADEMY OF SCIENCES) infected by HCV (J399E) inserted with enhanced green fluorescent protein (EGFP). The variation of the green fluorescence intensity was recorded on a microplate reader and cytotoxicity was measured at the same time, so as to evaluate the influence of the compound on the replication activity of HCV.
as §1, with “USA)). The final concentration of DMSO for cell culture was less than 0.25% (V/V, Volume to Volume), and such DMSO concentration would not affect the growth of cells.” for “USA)).”
as §2

Compound	CC50 at 72 h [µM]
CCC(O)c1nc(-c2nccs2)sc1CC(C)C (centres unmarked) [Compound C282-2]	> 100
CC(C)Cc1sc(-c2nccs2)nc1C(=O)NCc1ccccc1 [Compound C357]	> 33.3
CC(C)Cc1sc(-c2nccs2)nc1CNC(=O)c1nc(-c2nccs2)sc1CC(C)C [Compound C503]	> 100
CC(C)Cc1sc(-c2nccs2)nc1C(=O)NCc1ccc(F)cc1 [Compound W28F]	36.9
Cc1cnc(-c2nc(C(=O)NCc3ccc(F)cc3)c(CC(C)C)s2)s1 [Compound W28MF]	> 100
NC(=O)c1ncn([C@@H]2O[C@H](CO)[C@@H](O)[C@H]2O)n1 [ribavirin, reference compound]	449

System: Huh7.5.1 cells
Test: in vitro
Type: cell-based
Settings: not given
Protocol: as §3
as §1, with “USA)). The final concentration of DMSO for cell culture was less than 0.25% (V/V, Volume to Volume), and such DMSO concentration would not affect the growth of cells.” for “USA)).”
as §2

Compound	CC50 [µM]
CC(C)Cc1sc(-c2nccs2)nc1C(N)=O [Compound C267]	> 100
CCC(=O)c1nc(-c2nccs2)sc1CC(C)C [Compound C280-4]	> 100
CNC(=O)c1nc(-c2nccs2)sc1CC(C)C [Compound C281]	> 100
O=C(O)c1nc(-c2nccs2)sc1Cc1ccccc1 [Compound C302]	67.5
CCOC(=O)/C=C/c1nc(-c2nccs2)sc1CC(C)C [Compound C322-2]	> 100
CCOC(=O)CCc1nc(-c2nccs2)sc1CC(C)C [Compound C324-5]	> 100
CC(C)Cc1sc(-c2nccs2)nc1C(=O)Nc1ccccc1 [Compound C343]	> 100
